Data on 1 compound can be found in patent US8343543B2, “Lipase inhibiting composition” (Hoffmann-La Roche Inc., priority 2001, dated 2013).

The nature of the data set: Orlistat transfer into oil in vitro. The class given is physicochemical. Particulars: after 10 min. The procedure: Orlistat (4 mg) suspensions stabilized by sucroseesters (2 mg) were transferred into 5 ml of a 10% oil in water emulsion (pH value 4.5; oil components: olive oil and cream respectively). The dispersion underwent end-over end mixing for a desired period of time. The oil phase was separated by cold centrifugation and the orlistat content in the oil phase was determined by HPLC. For comparison, an adequate experiment was also performed with a suspension of XENICAL® brand of orlistat-containing pharmaceutical composition. L-1695, P-1670, S-1670, O-1570 are commercial sucroseesters (Sucroselaurate, Sucrosepalmitate, Sucrosestearate, Sucroseoleate respectively) from Mitsubishi-Kagaku Foods, Japan.

Regarding `CCCCCCCCCCC[C@@H](C[C@@H]1OC(=O)[C@H]1CCCCCC)OC(=O)[C@H](CC(C)C)NC=O` [orlistat], the “transfer into olive oil, times more efficient than transfer into cream” value is 7.
